# Reference: patent US20130089624A1, “Compounds Useful as Inhibitors of ATR Kinase” (VERTEX PHARMACEUTICALS INCORPORATED, priority 2011, published 2013)
# How the values were obtained:
# [1] = tested on: HCT116 colorectal cancer cells; experiment: Single Agent HCT116 Activity, 96 h cell viability (MTS) assay; format: cell-based; settings: Homo sapiens, HCT-116, 96 h MTS, read-out: Single agent HT116 IC50
# Description: Compounds can be screened for single agent activity against HCT116 colorectal cancer cells using a 96 h cell viability (MTS) assay. HCT116 are plated at 470 cells per well in 96-well polystyrene plates (Costar 3596) in 150 μl of McCoy's 5A media (Sigma M8403) supplemented with 10% foetal bovine serum (JRH Biosciences 12003), Penicillin/Streptomycin solution diluted 1:100 (Sigma P7539), and 2 mM L-glumtamine (Sigma G7513), and allowed to adhere overnight at 37° C. in 5% CO2. Compounds are then added to the cell media in 2-fold serial dilutions from a top final concentration of 10 μM as a full matrix of concentrations in a final cell volume of 200 μl, and the cells are then incubated at 37° C. in 5% CO2. After 96 h, 40 μl of MTS reagent (Promega G358a) is added to each well and the cells are incubated for 1 h at 37° C. in 5% CO2. Finally, absorbance is measured at 490 nm using a SpectraMax Plus 384 reader (Molecular Devices) and IC50 values can be calculated.
# [2] = Pharmacokinetics, noncompartmental parameters following intravenous (IV) dosing; settings: in vivo
# Description: Noncompartmental pharmacokinetic parameters were analyzed using Watson Bioanalytical LIMS (Version 7.4; Thermo Fisher Scientific) from either the blood or plasma samples. The following parameters were estimated following intravenous (IV) dosing; terminal elimination half-life (T1/2=ln(2)/λz, where λz is the first order rate constant associated with the terminal (log-linear) portion of the curve.
# The area under the curve (AUClast=area under the curve from the time of dosing to the last measurable concentration). The area under the curve extrapolated to infinity (AUC0-∞=AUClast+Clast/λz). The clearance (Cl; Cl=DoseIV/AUC0-∞). The area under the first moment curve (AUMClast=area under the concentration times time versus time curve from the time of dosing to the last measurable concentration). The area under the first moment curve extrapolated to infinity (AUMC0-∞=AUMClast+Clast×t/λz+Clast/λz^2). The mean residence time (MRT=AUMC0-∞/AUC0-∞) and the steady state volume of distribution (Vdss=MRT×Cl).
# Clearance and volume of distribution can also be obtained using methods known to one of skill in the art (see e.g., Handbook of Essential Pharmacokinetics, Pharmacodynamics and Drug Metabolism for Industrial Scientists, Younggil Kwon, pp 18-28 (Non-compartmental Approach)).
# [3] = tested on: HCT116 colorectal cancer cells; experiment: Cisplatin Sensitization Assay, 96 h cell viability (MTS) assay; format: cell-based; settings: concentration of compound required to reduce the IC50 of Cisplatin alone by at least 3-fold; HCT116, 96 h MTS
# Description: Compounds can be screened for their ability to sensitize HCT116 colorectal cancer cells to Cisplatin using a 96 h cell viability (MTS) assay. […] Compounds and Cisplatin are then both added simultaneously to the cell media in 2-fold serial dilutions from a top final concentration of 10 μM as a full matrix of concentrations in a final cell volume of 200 μl, and the cells are then incubated at 37° C. in 5% CO2. After 96 h, 40 μl of MTS reagent (Promega G358a) is added to each well and the cells are incubated for 1 h at 37° C. in 5% CO2. Finally, absorbance is measured at 490 nm using a SpectraMax Plus 384 reader (Molecular Devices) and the concentration of compound required to reduce the IC50 of Cisplatin alone by at least 3-fold (to 1 decimal place) can be reported.
# [4] = target: full-length ATR (Homo sapiens (Human), UniProt Q13535); experiment: ATR Inhibition Assay (radioactive-phosphate incorporation); format: biochemical; settings: Ki(app); 5 nM full-length ATR, 10 μM ATP, 25° C.
# full-length ATR, sequence (Q13535 whole entry): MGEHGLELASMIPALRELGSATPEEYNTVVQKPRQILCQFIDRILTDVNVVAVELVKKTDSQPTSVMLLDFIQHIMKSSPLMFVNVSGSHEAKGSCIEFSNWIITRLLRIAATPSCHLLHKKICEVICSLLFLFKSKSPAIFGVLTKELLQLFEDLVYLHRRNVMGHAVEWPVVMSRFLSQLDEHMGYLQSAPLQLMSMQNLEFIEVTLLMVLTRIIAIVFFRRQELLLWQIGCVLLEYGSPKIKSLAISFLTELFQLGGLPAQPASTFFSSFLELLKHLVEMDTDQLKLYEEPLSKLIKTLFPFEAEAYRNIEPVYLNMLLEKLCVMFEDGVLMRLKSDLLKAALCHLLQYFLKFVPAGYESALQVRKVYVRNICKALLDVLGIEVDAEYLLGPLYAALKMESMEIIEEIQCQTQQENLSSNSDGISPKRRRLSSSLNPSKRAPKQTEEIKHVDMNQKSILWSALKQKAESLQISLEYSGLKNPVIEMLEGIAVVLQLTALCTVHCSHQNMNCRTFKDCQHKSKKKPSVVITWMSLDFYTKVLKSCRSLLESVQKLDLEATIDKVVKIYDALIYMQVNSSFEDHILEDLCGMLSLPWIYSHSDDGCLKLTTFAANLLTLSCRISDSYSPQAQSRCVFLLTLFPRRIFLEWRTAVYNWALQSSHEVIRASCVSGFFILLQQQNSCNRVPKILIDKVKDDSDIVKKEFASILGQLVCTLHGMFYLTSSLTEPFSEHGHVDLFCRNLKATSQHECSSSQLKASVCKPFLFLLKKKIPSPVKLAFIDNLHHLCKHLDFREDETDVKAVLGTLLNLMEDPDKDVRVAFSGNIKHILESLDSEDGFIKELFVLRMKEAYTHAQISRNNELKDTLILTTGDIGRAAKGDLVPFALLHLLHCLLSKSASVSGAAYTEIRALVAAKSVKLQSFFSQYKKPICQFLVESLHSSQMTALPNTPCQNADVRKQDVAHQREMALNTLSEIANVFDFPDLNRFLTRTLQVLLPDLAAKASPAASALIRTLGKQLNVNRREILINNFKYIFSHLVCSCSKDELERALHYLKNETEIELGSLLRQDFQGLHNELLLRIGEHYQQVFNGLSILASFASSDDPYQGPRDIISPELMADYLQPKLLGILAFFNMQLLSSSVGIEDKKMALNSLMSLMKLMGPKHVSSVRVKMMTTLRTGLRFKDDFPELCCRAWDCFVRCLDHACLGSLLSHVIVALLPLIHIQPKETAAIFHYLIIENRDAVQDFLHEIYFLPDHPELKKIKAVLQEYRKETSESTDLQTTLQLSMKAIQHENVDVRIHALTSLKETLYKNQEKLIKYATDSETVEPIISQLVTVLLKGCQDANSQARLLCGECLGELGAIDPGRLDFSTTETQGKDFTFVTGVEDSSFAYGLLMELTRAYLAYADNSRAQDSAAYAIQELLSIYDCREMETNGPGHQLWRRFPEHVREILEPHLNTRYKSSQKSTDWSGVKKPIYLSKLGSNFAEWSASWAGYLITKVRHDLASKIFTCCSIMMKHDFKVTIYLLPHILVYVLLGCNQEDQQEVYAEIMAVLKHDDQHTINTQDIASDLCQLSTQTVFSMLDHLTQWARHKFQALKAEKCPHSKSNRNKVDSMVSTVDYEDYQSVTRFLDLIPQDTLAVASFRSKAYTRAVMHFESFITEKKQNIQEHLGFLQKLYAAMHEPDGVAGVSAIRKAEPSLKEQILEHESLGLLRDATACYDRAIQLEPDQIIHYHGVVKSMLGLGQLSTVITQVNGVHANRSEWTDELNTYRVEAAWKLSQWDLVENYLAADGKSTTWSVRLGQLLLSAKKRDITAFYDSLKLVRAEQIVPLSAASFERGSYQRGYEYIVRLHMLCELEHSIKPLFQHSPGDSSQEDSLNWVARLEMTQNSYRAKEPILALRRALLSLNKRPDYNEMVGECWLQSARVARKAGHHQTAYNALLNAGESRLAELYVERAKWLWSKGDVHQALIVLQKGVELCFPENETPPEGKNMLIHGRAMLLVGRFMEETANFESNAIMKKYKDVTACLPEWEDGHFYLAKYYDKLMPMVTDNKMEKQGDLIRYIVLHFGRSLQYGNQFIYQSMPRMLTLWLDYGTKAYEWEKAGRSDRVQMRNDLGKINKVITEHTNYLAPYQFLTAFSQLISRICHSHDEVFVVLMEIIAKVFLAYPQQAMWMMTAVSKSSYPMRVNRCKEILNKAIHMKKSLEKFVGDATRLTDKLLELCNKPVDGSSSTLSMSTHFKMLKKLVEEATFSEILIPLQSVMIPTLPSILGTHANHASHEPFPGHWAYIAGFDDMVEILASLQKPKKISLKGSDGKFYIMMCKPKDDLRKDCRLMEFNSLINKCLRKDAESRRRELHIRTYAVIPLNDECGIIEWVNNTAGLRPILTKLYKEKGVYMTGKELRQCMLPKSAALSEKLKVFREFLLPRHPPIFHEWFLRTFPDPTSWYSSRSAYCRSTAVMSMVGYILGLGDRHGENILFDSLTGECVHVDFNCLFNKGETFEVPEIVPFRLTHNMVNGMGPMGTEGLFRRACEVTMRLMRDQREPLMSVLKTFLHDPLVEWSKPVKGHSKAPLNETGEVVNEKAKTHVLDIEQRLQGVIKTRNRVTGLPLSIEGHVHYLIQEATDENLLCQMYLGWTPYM
# Description: Compounds were screened for their ability to inhibit ATR kinase using a radioactive-phosphate incorporation assay. Assays were carried out in a mixture of 50 mM Tris/HCl (pH 7.5), 10 mM MgCl2 and 1 mM DTT. Final substrate concentrations were 10 μM [γ-33P]ATP (3mCi 33P ATP/mmol ATP, Perkin Elmer) and 800 μM target peptide (ASELPASQPQPFSAKKK).
# Assays were carried out at 25° C. in the presence of 5 nM full-length ATR. An assay stock buffer solution was prepared containing all of the reagents listed above, with the exception of ATP and the test compound of interest. 13.5 μL of the stock solution was placed in a 96 well plate followed by addition of 2 μL of DMSO stock containing serial dilutions of the test compound (typically starting from a final concentration of 15 μM with 3-fold serial dilutions) in duplicate (final DMSO concentration 7%). The plate was pre-incubated for 10 minutes at 25° C. and the reaction initiated by addition of 15 μL [γ-33P]ATP (final concentration 10 μM).
# The reaction was stopped after […] by the addition of 30 μL 0.1M phosphoric acid containing 2 mM ATP. […]
# After removing mean background values for all of the data points, Ki(app) data were calculated from non-linear regression analysis of the initial rate data using the Prism software package (GraphPad Prism version 3.0cx for Macintosh, GraphPad Software, San Diego Calif., USA).
# [5] = target: intracellular ATR (Homo sapiens (Human), UniProt Q13535); experiment: Cellular ATR Inhibition Assay (phosphorylation of histone H2AX in hydroxyurea treated HT29 cells); format: cell-based; settings: phosphorylated H2AX Ser139 in HT29 cells, 2 mM hydroxyurea; read-out: ATR biomarker IC50
# intracellular ATR, sequence (Q13535 whole entry): as above
# intracellular ATR, sequence (Q8WXE1 whole entry partner): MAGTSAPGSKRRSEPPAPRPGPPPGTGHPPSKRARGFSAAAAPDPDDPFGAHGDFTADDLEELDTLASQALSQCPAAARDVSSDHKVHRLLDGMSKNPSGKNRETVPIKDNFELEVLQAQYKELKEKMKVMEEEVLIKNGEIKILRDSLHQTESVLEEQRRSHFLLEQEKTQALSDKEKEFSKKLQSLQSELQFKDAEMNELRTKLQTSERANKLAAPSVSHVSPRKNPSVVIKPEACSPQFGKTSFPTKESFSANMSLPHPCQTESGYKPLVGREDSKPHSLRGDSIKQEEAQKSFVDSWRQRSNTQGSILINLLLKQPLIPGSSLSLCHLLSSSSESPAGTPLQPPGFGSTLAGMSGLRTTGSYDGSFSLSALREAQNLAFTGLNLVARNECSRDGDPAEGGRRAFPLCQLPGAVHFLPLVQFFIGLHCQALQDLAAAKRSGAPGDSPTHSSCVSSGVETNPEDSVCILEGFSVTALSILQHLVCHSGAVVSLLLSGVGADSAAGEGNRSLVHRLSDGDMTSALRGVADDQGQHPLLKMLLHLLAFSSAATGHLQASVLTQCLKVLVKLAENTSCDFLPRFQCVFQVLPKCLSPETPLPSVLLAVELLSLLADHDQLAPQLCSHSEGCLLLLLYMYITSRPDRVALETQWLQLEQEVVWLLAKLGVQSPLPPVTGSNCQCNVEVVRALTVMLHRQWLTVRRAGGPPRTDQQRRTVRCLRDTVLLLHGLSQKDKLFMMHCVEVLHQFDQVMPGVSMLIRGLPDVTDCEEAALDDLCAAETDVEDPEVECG
# Description: Compounds can be screened for their ability to inhibit intracellular ATR using an immunofluorescence microscopy assay to detect phosphorylation of the ATR substrate histone H2AX in hydroxyurea treated cells. HT29 cells are plated at 14,000 cells per well in 96-well black imaging plates (BD 353219) in McCoy's 5A media (Sigma M8403) supplemented with 10% foetal bovine serum (JRH Biosciences 12003), Penicillin/Streptomycin solution diluted 1:100 (Sigma P7539), and 2 mM L-glumtamine (Sigma G7513), and allowed to adhere overnight at 37° C. in 5% CO2. Compounds are then added to the cell media from a final concentration of 25 μM in 3-fold serial dilutions and the cells are incubated at 37° C. in 5% CO2. […]
# Cells are imaged for Alexa Fluor 488 and Hoechst intensity using the BD Pathway 855 Bioimager and Attovision software (BD Biosciences, Version 1.6/855) to quantify phosphorylated H2AX Ser139 and DNA staining, respectively. The percentage of phosphorylated H2AX-positive nuclei in a montage of 9 images at 20× magnification is then calculated for each well using BD Image Data Explorer software (BD Biosciences Version 2.2.15). […] The percentage of H2AX positive nuclei is finally plotted against concentration for each compound and IC50s for intracellular ATR inhibition are determined using Prism software (GraphPad Prism version 3.0cx for Macintosh, GraphPad Software, San Diego Calif., USA).
smiles,measurement,setting,value
"CC(C)S(=O)(=O)c1ccc(-c2cnc(N)c(-c3cc(-c4ccc([C@@H]5COCCN5)cc4)no3)n2)cc1 [I, 5-(4-isopropylsulfonylphenyl)-3-[3-[4-[(3R)-morpholin-3-yl]phenyl]isoxazol-5-yl]pyrazin-2-amine]",IC50,[1],365 nM
same,clearance,[2]; blood or plasma samples,3.5 mL/min/kg
same,Vd,"[2]; steady state volume of distribution, read-out: VSS",1.1 L/kg
same,Cisplatin sensitization,[3],117 nM
same,Ki,[4],0.503 nM
same,IC50,[5],200 nM
